How the values were obtained:
[1] = target: T1, human ENPP1 (Homo sapiens, UniProt P22413); test: ENPP1 assay with ATP substrate (Transcreener AMP2/GMP2 TR-FRET); format: biochemical; details: 1 hour at room temperature
T1 construct: made in house
T1 sequence (P22413 1-925): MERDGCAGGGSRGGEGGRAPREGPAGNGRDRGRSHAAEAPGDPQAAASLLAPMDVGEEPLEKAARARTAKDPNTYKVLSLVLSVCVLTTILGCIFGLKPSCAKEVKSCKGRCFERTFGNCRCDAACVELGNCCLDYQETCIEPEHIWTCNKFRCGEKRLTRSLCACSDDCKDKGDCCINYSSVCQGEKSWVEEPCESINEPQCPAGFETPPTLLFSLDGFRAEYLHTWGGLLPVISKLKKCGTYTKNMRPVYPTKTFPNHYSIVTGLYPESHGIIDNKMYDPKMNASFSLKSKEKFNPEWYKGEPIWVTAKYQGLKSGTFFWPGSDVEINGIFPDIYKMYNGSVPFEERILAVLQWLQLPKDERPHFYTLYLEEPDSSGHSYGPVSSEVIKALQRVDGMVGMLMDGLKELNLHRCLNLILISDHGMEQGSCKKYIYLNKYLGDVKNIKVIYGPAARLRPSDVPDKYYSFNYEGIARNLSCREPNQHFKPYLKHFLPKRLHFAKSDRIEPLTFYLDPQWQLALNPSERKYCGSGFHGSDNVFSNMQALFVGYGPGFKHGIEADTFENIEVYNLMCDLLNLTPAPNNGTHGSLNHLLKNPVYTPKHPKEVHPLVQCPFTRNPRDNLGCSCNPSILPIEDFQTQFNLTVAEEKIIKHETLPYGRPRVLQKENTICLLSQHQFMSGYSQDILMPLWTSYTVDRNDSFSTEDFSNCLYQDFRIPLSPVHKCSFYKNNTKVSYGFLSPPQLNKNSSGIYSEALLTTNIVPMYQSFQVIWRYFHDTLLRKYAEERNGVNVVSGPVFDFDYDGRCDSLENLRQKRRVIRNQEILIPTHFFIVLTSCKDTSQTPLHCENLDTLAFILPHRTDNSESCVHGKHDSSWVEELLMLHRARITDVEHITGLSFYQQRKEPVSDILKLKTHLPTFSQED
Text: Example B1: ENPP1 Assay with ATP Substrate
Ectonucleotide pyrophosphatase/phosphodiesterase 1 (ENPP1) hydrolyzes ATP, breaking it down into 5′-AMP and pyrophosphate. The 5′-AMP formed from the reaction is detected by Transcreener® AMP2/GMP2 TR-FRET Assay (Bellbrook), containing AMP-tracer (HiLyte 647) and anti-AMP Terbium (Tb) donor. 5′-AMP generated in the reaction competes with AMP-tracer for binding with Anti-AMP Tb donor, and decreases TR-FRET signal.
Different concentrations of ENPP1 inhibitors are added to dry assay plate, followed by 2 μl 300 nM ATP. The reaction is initiated with the addition of 2 μl 8.5 μM human ENPP1 (generated by SBP Protein group). The assay reaction mixture contains a buffer of 50 mM Tris, pH 7.5, 1 mM TCEP, 2 mM MgCl2, 0.005% Tween 20, and 1% DMSO. The reaction is stopped after 1 hour at room temperature by adding 2 μL of 2 nM AMP-tracer and 2 μl of 2 nM Anti-AMP Tb donor in the 50 mM Tris, pH 7.5, buffer containing 20 mM EDTA and 0.1% Prionex. After 2 hour additional incubation at room temperature, the generated signal is measured using BMG Lab PHERASTAR instrument. 100% activity control samples (containing enzyme, substrate, buffer: MAX) and no enzyme control samples (containing substrate and buffer: MIN) are utilized to calculate percent inhibition (%) for each compound concentration well (COMPOUND) as follows.
The IC50 values are determined by fitting the inhibition curves with 2-parameter variable slope model in Graphpad Prism software using percent inhibition vs compound concentration data: […]

[2] = target: T2, ENPP3 (Homo sapiens, UniProt O14638); test: ENPP3 Km ATP assay; format: biochemical; details: ATP at Km
T2 sequence (O14638 1-875): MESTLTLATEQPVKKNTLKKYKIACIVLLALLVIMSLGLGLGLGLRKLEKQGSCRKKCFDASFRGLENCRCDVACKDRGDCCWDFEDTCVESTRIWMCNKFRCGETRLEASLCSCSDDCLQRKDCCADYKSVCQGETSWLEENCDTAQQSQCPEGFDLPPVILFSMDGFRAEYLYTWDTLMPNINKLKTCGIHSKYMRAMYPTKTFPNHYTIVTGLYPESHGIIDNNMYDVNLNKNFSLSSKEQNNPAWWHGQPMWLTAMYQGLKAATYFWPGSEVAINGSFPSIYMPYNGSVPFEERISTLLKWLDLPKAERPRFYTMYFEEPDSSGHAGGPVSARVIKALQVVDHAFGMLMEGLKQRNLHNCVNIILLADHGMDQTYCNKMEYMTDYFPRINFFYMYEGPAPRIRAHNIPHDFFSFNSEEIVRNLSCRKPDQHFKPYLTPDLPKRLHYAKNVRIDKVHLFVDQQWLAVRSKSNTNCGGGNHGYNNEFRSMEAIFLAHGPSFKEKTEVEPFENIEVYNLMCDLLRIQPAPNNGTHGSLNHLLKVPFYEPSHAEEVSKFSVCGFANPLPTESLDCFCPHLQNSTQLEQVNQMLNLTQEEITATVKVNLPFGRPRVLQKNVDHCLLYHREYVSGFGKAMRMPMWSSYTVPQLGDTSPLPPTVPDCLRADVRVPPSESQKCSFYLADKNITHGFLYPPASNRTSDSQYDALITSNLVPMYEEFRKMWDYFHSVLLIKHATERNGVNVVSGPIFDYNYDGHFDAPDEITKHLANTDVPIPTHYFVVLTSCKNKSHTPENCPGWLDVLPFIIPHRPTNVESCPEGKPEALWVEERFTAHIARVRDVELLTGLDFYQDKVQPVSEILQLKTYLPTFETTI

Compound	IC50 [1] [µM]	IC50 [2] [µM]
Cc1csc2c(N3CCC(NCCCc4ccc(F)cc4)CC3)ncnc12 [Example 3.5, N-(3-(4-Fluorophenyl)propyl)-1-(7-methylthieno[3,2-d]pyrimidin-4-yl)piperidin-4-amine]	0.1 to 1	> 20
Cc1noc2ncnc(N3CCC(NCCCc4ccc(F)cc4)CC3)c12 [Example 2.57, N-(3-(4-Fluorophenyl)propyl)-1-(3-methylisoxazolo[5,4-d]pyrimidin-4-yl)piperidin-4-amine]	> 20	> 20
Cn1ncc2c(NCc3ccc(S(N)(=O)=O)cc3)nc(Cl)nc21 [Example 2.92, 4-((6-Chloro-1-methyl-1H-pyrazolo[3,4-d]pyrimidin-4-yl)aminomethyl)-benzenesulfonamide]	< 0.1	0.1 to 1
COc1nc(NCc2ccc(S(N)(=O)=O)s2)c2cnn(C)c2n1 [Example 2.95, 5-((6-Methoxy-1-methyl-1H-pyrazolo[3,4-d]pyrimidin-4-yl)aminomethyl)thiophene-2-sulfonamide]	0.1 to 1	0.1 to 1
COc1cc(CNc2ncnc3c2cnn3C)ccc1S(N)(=O)=O [Example 2.42, 2-Methoxy-4-(((1-methyl-1H-pyrazolo[34-d]pyrimidin-4-yl)amino)methyl)-benzenesulfonamide]	> 20	> 20
C=Cc1nc(NCc2ccc(S(N)(=O)=O)cc2)c2cnn(C)c2n1 [Example 2.39, 4-(((1-Methyl-6-vinyl-1H-pyrazolo[3,4-d]pyrimidin-4-yl)amino)methyl)benzenesulfonamide]	< 0.1	< 0.1
NS(=O)(=O)c1ccc(CNc2nc(-c3ccccn3)nc3scc(-c4ccccn4)c23)cc1 [Example 1.23, 4-(((2,5-Di(pyridin-2-yl)thieno[2,3-d]pyrimidin-4-yl)amino)methyl)benzenesulfonamide]	0.1 to 1	1 to 20
Cc1csc2c(N3CCC(NCCCc4ccnc(F)c4)CC3)ncnc12 [Example 3.37, N-(3-(2-Fluoropyridin-4-yl)propyl)-1-(7-methylthieno[3,2-d]pyrimidin-4-yl)piperidin-4-amine]	0.1 to 1	> 20
Cn1ncc2c(NCc3ccc(S(N)(=O)=O)cc3)cc(C3CC3)nc21 [Example 2.134, 4-((6-Cyclopropyl-1-methyl-1H-pyrazolo[3,4-b]pyridin-4-yl)aminomethyl)-benzenesulfonamide]	1 to 20	1 to 20
Cc1csc2c(N3CCC(Nc4ccncc4)CC3)ncnc12 [Example 3.24, N-(1-(7-Methylthieno[3,2-d]pyrimidin-4-yl)piperidin-4-yl)pyridin-4-amine]	1 to 20	> 20
NS(=O)(=O)c1ccc(CNc2nc(-c3ccccn3)nc3scc(-c4ccccc4)c23)c(Cl)c1 [Example 1.21, 3-Chloro-4-(((5-phenyl-2-(pyridin-2-yl)thieno[2,3-d]pyrimidin-4-yl)amino)methyl)-benzenesulfonamide]	< 0.1	0.1 to 1
Fc1ccccc1CNc1nc(-c2ccccn2)nc2scc(-c3ccccc3)c12 [Example 1.8, (2-Fluoro-benzyl)-(5-phenyl-2-pyridin-2-yl-thieno[2,3-d]pyrimidin-4-yl)-amine]	> 20	> 20
NS(=O)(=O)c1ccc(CNc2nc(-c3ccccn3)nc3scc(-c4ccccc4)c23)cc1 [Example 1.6, 4-(((5-Phenyl-2-(pyridin-2-yl)thieno[2,3-d]pyrimidin-4-yl)amino)methyl)benzenesulfonamide]	< 0.1	< 0.1
Cc1csc2c(N3CCC(NCCCc4ccncc4F)CC3)ncnc12 [Example 3.40, N-(3-(3-Fluoropyridin-4-yl)propyl)-1-(7-methylthieno[3,2-d]pyrimidin-4-yl)piperidin-4-amine]	0.1 to 1	> 20
Cc1nc(NCc2ccc(S(N)(=O)=O)cc2)c2c(Br)nn(C)c2n1 [Example 2.89, 4-((3-Bromo-1,6-dimethyl-1H-pyrazolo[3,4-d]pyrimidin-4-yl)aminomethyl)-benzenesulfonamide]	< 0.1	< 0.1
CCN(CC)c1cc(NCc2ccc(S(N)(=O)=O)cc2)c2cnn(C)c2n1 [Example 2.79, 4-(((6-(Diethylamino)-1-methyl-1H-pyrazolo[3,4-b]pyridin-4-yl)amino)methyl)-benzenesulfonamide]	> 20	1 to 20
NS(=O)(=O)c1ccc(CNc2nc(-c3ccccn3)nc3scc(-c4ccccc4)c23)cc1Cl [Example 1.18, 2-Chloro-4-(((5-phenyl-2-(pyridin-2-yl)thieno[2,3-d]pyrimidin-4-yl)amino)methyl)-benzenesulfonamide]	< 0.1	0.1 to 1
CN(C)CCCNc1nc(NCc2ccc(S(N)(=O)=O)cc2)c2c(-c3ccccc3)csc2n1 [Example 1.59, 4-((2-(3-Dimethylaminopropyl)amino-5-phenylthieno[2,3-d]pyrimidin-4-yl)aminomethyl)-benzenesulfonamide]	< 0.1	< 0.1
Cn1ncc2ncnc(NCc3ccc(S(N)(=O)=O)cc3)c21 [Example 2.54, 4-[(1-Methyl-1H-pyrazolo[4,3-d]pyrimidin-7-ylamino)-methyl]-benzenesulfonamide]	< 0.1	1 to 20
CSc1nc(NCc2ccc(S(N)(=O)=O)cc2)c2cnn(C)c2n1 [Example 2.107, 4-((1-Methyl-6-(methylsulfanyl)-1H-pyrazolo[3,4-d]pyrimidin-4-yl)aminomethyl)-benzenesulfonamide]	< 0.1	< 0.1
CCN(C)c1nc(NCc2ccc(S(N)(=O)=O)cc2)c2cnn(C)c2n1 [Example 2.31, 4-(((6-(Ethyl(methyl)amino)-1-methyl-1H-pyrazolo[3,4-d]pyrimidin-4-yl)amino)methyl)-benzenesulfonamide]	1 to 20	0.1 to 1
Cc1cc(S(N)(=O)=O)ccc1CNc1ncnc2c1cnn2C [Example 2.2, 3-Methyl-4-(((1-methyl-1H-pyrazolo[3,4-d]pyrimidin-4-yl)amino)methyl)-benzenesulfonamide]	0.1 to 1	1 to 20
COc1cc(CNc2ccnc3c2cnn3C)ccc1S(N)(=O)=O [Example 2.65, 2-Methoxy-4-(((1-methyl-1H-pyrazolo[3,4-b]pyridin-4-yl)amino)methyl)-benzenesulfonamide]	1 to 20	> 20

Source: patent publication US12643910B2, “Substituted pyrazolo[3,4-b]pyridines as ectonucleotide pyrophosphatase/phosphodiesterase 1 (ENPP1) modulators” (SANFORD BURNHAM PREBYS MEDICAL DISCOVERY INSTITUTE, priority 2019, dated 2026)
